Laboratory results published in patent publication US20080146570A1, “Chemical Compounds” (ASTRAZENECA AB, priority 2005, published 2008).

Target: T1, human recombinant, purified wild type His-B-Raf protein kinase (Homo sapiens, UniProt P15056)
T1 construct: His
Experiment: B-Raf In Vitro ELISA Assay
Type: biochemical
Conditions: ELISA of MEK1 phosphorylation; 2.5 nM B-Raf, 10 μM ATP; 1 hour preincubation at 25° C.
Experimental: B-Raf In Vitro ELISA Assay
Activity of human recombinant, purified wild type His-B-Raf protein kinase was determined in vitro using an enzyme-linked immunosorbent assay (ELISA) assay format, which measures phosphorylation of the B-Raf substrate, human recombinant, purified His-derived (detagged) MEK1. The reaction utilized 2.5 nM B-Raf, 0.15 μM […] and 10 μM adenosine triphosphate (ATP) in 40 mM N-(2-hydroxyethyl)piperazine-N′-(2-ethanesulfonic acid hemisodium salt (HEPES), 5 mM 1,4-dithio-DL-threitol (DTT), 10 mM MgCl2, 1 mM ethylenediaminetetraacetic acid (EDTA) and 0.2 M NaCl (1×HEPES buffer), with or without compound at various concentrations, in a total reaction volume of 25 μl in 384 well plates. B-Raf and compound were preincubated in 1×HEPES buffer for 1 hour at 25° C. Reactions were initiated with addition of MEK1 and ATP in 1×HEPES buffer and incubated at 25° C. for 50 minutes and reactions stopped by addition of 10 μl 175 mM EDTA (final concentration 50 mM) in 1×HEPES buffer. 5 μl of the assay mix was then diluted 1:20 into 50 mM EDTA in 1×HEPES buffer, transferred to 384 well black high protein binding plates and incubated overnight at 4° C. […] Blue fluorescent product was detected at excitation 325 and emission 420 using a TECAN Ultra plate reader. Data was graphed and IC50s calculated using Excel Fit (Microsoft).

T1 sequence (P15056 whole entry): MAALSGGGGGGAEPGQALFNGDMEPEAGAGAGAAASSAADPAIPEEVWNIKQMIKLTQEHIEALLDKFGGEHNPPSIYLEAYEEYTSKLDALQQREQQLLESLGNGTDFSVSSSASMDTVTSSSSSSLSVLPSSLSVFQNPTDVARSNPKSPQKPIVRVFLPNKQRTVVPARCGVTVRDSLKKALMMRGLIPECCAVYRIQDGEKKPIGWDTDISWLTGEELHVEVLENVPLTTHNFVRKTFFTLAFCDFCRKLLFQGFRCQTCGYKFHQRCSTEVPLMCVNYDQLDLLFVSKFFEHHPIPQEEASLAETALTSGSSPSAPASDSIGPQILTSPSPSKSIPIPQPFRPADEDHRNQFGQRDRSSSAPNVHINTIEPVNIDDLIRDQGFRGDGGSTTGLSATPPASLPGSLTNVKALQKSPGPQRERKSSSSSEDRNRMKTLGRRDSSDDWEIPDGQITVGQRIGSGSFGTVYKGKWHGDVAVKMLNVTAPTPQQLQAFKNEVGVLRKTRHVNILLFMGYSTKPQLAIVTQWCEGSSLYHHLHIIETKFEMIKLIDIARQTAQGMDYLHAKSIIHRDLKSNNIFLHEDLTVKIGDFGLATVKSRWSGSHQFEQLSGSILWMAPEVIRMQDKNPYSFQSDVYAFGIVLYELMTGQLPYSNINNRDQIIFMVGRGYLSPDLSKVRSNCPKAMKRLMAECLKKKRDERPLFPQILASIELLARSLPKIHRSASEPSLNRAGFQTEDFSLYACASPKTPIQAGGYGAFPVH

Row | Structure (SMILES) | IC50
1 | Cc1ccc(NC(=O)c2cccc(C(C)(C)C#N)c2)cc1Nc1cc(NC2CC2)nc(-c2cccnc2)n1 [Example 4, 3-(Cyano-dimethyl-methyl)-N-[3-(6-cyclopropylamino-2-pyridin-3-yl-pyrimidin-4-ylamino)-4-methyl-phenyl]benzamide] | 1350 nM
2 | Cc1ccc(NC(=O)c2cccc(C(C)(C)C#N)c2)cc1Nc1ccnc(-c2cccnc2)n1 [Example 2, 3-(1-Cyano-1-methylethyl)-N-{4-methyl-3-[(2-pyridin-3-ylpyrimidin-4-yl)amino]phenyl}benzamide] | 153 nM
